From patent US7625711B2, “Screening method for the identification of a drug for the development of an agent for prevention and/or treatment of Alzheimer's disease” (Hisamitsu Pharmaceutical Co., Inc., priority 2003, dated 2009) come the findings set out here.

Common to all, as to format: cell-based, human
One experiment deals with SH-SY5Y cells. The experiment can be described thus: Cell viability assay (MTT method) after cisplatin treatment. The conditions noted are these: SH-SY5Y cells treated with cisplatin, FIG. 14. The protocol: SH-SY5Y cells, which are a neuroblastoma cell line, are used as tumor cells. SH-SY5Y cells are treated with cisplatin, and then the cell viability is measured by the MTT method. FIG. 14 is a graph showing the relationship between the amount of cisplatin and the cell viability of SH-SY5Y cells. The cell viability was determined by a modified 3-(4,5-dimethylthiazol-2-yl)-2,5-diphenyltetrazolium bromide (MTT) assay. Specifically, […] cells were plated on 100 μl of complete medium in a 96-well micro titer plate (5×10^3 cells/well), and made to adhere thereto. On the next day, the medium was changed, and the cells were treated with cisplatin for 24 hours. In the MTT assay, 10 μl of MTT solution was added to each well, and incubated at 37° C. for 3 hours. The absorbance of the wells at 570 nm was measured using a microplate reader (Type 450, Bio-Rad Laboratories).

In a further experiment the test system is p21. The experiment can be described thus: Immunoblotting of cisplatin-treated SH-SY5Y cells with anti-p21 antibody. The conditions noted are these: FIG. 15. The protocol: (§1) Next, products obtained by cisplatin treatment of SH-SY5Y cells are analyzed by immunoblotting and immunoprecipitation. Specifically, SH-SY5Y cells are treated with cisplatin, and then the expression levels of p53, p21, βAPP and actin are analyzed by immunoblotting. Moreover, an interaction between a βAPP-derived product and p53 is analyzed by immunoprecipitation and immunoblotting. FIG. 15 is diagrams showing the result of immunoblotting analysis of products obtained by cisplatin treatment of SH-SY5Y cells. In the figure, “IP” means immunoprecipitation, and “IB” means immunoblotting. The second diagram from the top in FIG. 15 is a diagram showing the result of immunoblotting analysis using anti-p53 antibody. […] The third diagram from the top in FIG. 15 is a diagram showing the result of immunoblotting analysis using anti-p21 antibody. […] The uppermost diagram in FIG. 15 is a diagram showing the result of immunoprecipitation of a cell lysate (homogenate) using anti-βAPP antibody, and immunoblotting analysis of the immunoprecipitate using anti-p53 antibody. […] Since βAPP is present on the membrane and p53 is present in the nucleus, it is unlikely that there is physical binding therebetween.

In a further experiment the test system is p53. The experiment can be described thus: Immunoblotting of cisplatin-treated SH-SY5Y cells with anti-p53 antibody. The conditions noted are these: FIG. 15. The protocol:
as §1

Experiment [1] concerns βAPP-derived product and p53. The experiment can be described thus: Immunoprecipitation with anti-βAPP antibody and immunoblotting with anti-p53 antibody of cisplatin-treated SH-SY5Y cells. The conditions noted are these: SH-SY5Y cell lysate, IP anti-βAPP, IB anti-p53, FIG. 15. The protocol: as §1

On to `N.N.[Cl][Pt][Cl]` [cisplatin], for which the “cell viability of SH-SY5Y cells” value with SH-SY5Y cells was “the number of SH-SY5Y cells decreases depending on the dosage of cisplatin”. In addition, in the experiment with p21, the “expression of p21” value was “p53 expressed during the cisplatin treatment promotes the expression of p21”. Moreover, in the experiment with p53, the “induction of endogenous p53” value was “the induction of endogenous p53 by cisplatin can be seen”. For the same compound, the “physical binding between a βAPP-derived product and p53” value in experiment [1] is reported as “p53 is present in the cisplatin treatment group”.
